Some test systems named below: Trichoderma viride; Alternaria brassicicola; Botrytis cinerea; Fusarium culmorum; Bacillus megaterium; Aerococcus viridans; Fusarium haematococcum; Neurospora crassa; Ascochyta pisi; Micrococcus luteus; Pediococcus acidilactici; Staphylococcus aureus 31; Staphylococcus aureus 38; Candida albicans SC5314; Bacillus subtilis.
Holding throughout (assay): ≥ marks a high value that may be exact or a test limit, other limits are often not marked, values filed in µg/mL are converted to µM
Test [1] concerns Pseudomonas aeruginosa ATCC 15692.
For test [2], the system named is Listeria monocytogenes KCTC 3710.
The subject of test [3] is Staphylococcus aureus ATCC 25923.
Test [4] has as its system Aspergillus fumigatus KCTC 6145.
Test [5] relates to Trichosporon beigelii KCTC 7707.
Test [6] has as its system Bacillus subtilis KCTC 1998.
Test [7] concerns Escherichia coli ATCC 25922.
In test [8] the test system is Salmonella typhimurium KCTC 1926.
In test [9] the test system is Proteus vulgaris KCTC 2433.
The test system of test [10] is Candida albicans KCTC 7270.
Test [11] has as its system Aspergillus parasiticus KCTC 6598.
The subject of test [12] is Aspergillus flavus KCTC 6905.
Test [13] concerns Aspergillus awamori KCTC 6915.
In test [14] the test system is Staphylococcus epidermidis ATCC 12228.
Test [15] deals with Staphylococcus aureus CIP 53.156.
In test [16] the test system is Escherichia coli CIP 76.24.
Test [17] concerns Pseudomonas aeruginosa ATCC 19660.
The subject of test [18] is Pseudomonas aeruginosa 6206.
For test [19], the system named is Staphylococcus aureus ATCC 6538.
Test [20] deals with Pseudomonas aeruginosa 6294.
The test system of test [21] is Pseudomonas aeruginosa 37.
The test system of test [22] is Xanthomonas campestris pv. campestris.
Test [23] has as its system Xanthomonas oryzae pv. oryzae.
The subject of test [24] is Pseudomonas aeruginosa ATCC 27853.
Test [25] has as its system Cryptococcus neoformans var. grubii H99.
In test [26] the test system is Escherichia coli DH5alpha.
Test [27] concerns Staphylococcus aureus ATCC 2592.
In test [28] the test system is Candida albicans 08022821.
For test [29], the system named is Candida albicans 08022710.
In test [30] the test system is Candida albicans 08032815.
Test [31] deals with Candida albicans ATCC 2002.
The test system of test [32] is Candida albicans 08030809.

≈ marks a conversion by molar mass, not a printed value. Where only a bound is given, the exact number is not on record here.

The term MIC denotes the smallest concentration in the dilution series that meets the test's criterion for growth inhibition. Higher therefore signals a less susceptible organism. As for `CC[C@H](C)[C@H](NC(=O)[C@H](CCCCN)NC(=O)[C@H](CCCCN)NC(=O)[C@H](C)NC(=O)[C@H](CC(C)C)NC(=O)[C@H](CCCCN)NC(=O)[C@H](CCCCN)NC(=O)[C@H](CC(C)C)NC(=O)[C@H](CCCN=C(N)N)NC(=O)[C@H](CCCCN)NC(=O)[C@@H](N)Cc1ccccc1)C(=O)N[C@@H](Cc1c[nH]c2ccccc12)C(=O)N[C@@H](CC(N)=O)C(=O)N[C@@H](Cc1c[nH]c2ccccc12)C(=O)N[C@@H](CCCCN)C(N)=O` [FKRLKKLAKKIWNWK], the MIC was found to be 2 µM (≈ 3.97 µg/mL) in [1]; 2 µM (≈ 3.97 µg/mL) in test [2]; 4 µM (≈ 7.95 µg/mL) in test [3]; 8 µM (≈ 15.9 µg/mL) in test [4]; 16 µM (≈ 31.8 µg/mL) in test [5]; 4 µM (≈ 7.95 µg/mL) in test [6]. The MIC in test [7] was determined as 4 µM (≈ 7.95 µg/mL); in [8], 2 µM (≈ 3.97 µg/mL); in test [9], 4 µM (≈ 7.95 µg/mL); in [10] it was 8 µM (≈ 15.9 µg/mL); in test [11], 8 µM (≈ 15.9 µg/mL); in test [12] it was 16 µM (≈ 31.8 µg/mL). Also, the values for the MIC in test [13] and in [14] were 16 µM (≈ 31.8 µg/mL) and 2.83 µM (≈ 5.62 µg/mL), respectively.
As to `CC[C@H](C)[C@H](NC(=O)[C@@H](NC(=O)[C@@H]1CCCN1C(=O)[C@@H](NC(=O)[C@@H]1CCCN1C(=O)[C@H](CCCCN)NC(=O)[C@H](CCCCN)NC(=O)[C@H](CO)NC(=O)CN)C(C)C)[C@@H](C)CC)C(=O)N[C@@H](Cc1ccc(O)cc1)C(=O)N[C@H]1CSSC[C@@H](C(=O)O)NC(=O)[C@H](CCCCN)NC(=O)CNC(=O)[C@H]([C@@H](C)O)NC(=O)[C@H](CCCN=C(N)N)NC(=O)[C@H](CCCN=C(N)N)NC(=O)[C@H](CC(N)=O)NC1=O` [GSKKPVPIIYCNRRTGKC], the MIC was 28.3 µM (≈ 57.1 µg/mL) against Trichoderma viride; 7.07 µM (≈ 14.3 µg/mL) in the test on Alternaria brassicicola; 7.07 µM (≈ 14.3 µg/mL) in the test on Botrytis cinerea; 14.1 µM (≈ 28.5 µg/mL) against Fusarium culmorum; 7.07 µM (≈ 14.3 µg/mL) against Bacillus megaterium; 3.54 µM (≈ 7.14 µg/mL) in the test on Aerococcus viridans. Besides, the MIC amounted to 7.07 µM (≈ 14.3 µg/mL) against Fusarium haematococcum; 14.1 µM (≈ 28.5 µg/mL) with Neurospora crassa; 28.3 µM (≈ 57.1 µg/mL) in the test on Ascochyta pisi; 7.07 µM (≈ 14.3 µg/mL) in the test with Micrococcus luteus; 28.3 µM (≈ 57.1 µg/mL) with Pediococcus acidilactici.
Turning to `CC[C@H](C)[C@H](N)C(=O)N1CCC[C@H]1C(=O)N[C@@H](Cc1c[nH]c2ccccc12)C(=O)NCC(=O)N[C@@H](CCCCN)C(=O)N[C@H](C(=O)N[C@@H](CCCCN)C(=O)N[C@@H](CC(=O)O)C(=O)N[C@@H](Cc1ccccc1)C(=O)N[C@@H](CC(C)C)C(=O)N[C@H](C(=O)NCC(=O)NCC(=O)N[C@@H](CCSC)C(=O)N[C@@H](CCCCN)C(=O)N[C@@H](C)C(=O)N[C@H](C(N)=O)C(C)C)C(C)C)C(C)C` [IPWGKVKDFLVGGMKAV], the figures for the MIC in [15] and in [16] were 9 µM (≈ 16.6 µg/mL) and no less than 49 µM, respectively.
On to `CC[C@H](C)[C@H](NC(=O)[C@H](Cc1c[nH]c2ccccc12)NC(=O)[C@H](CO)NC(=O)[C@@H](NC(=O)[C@H](CC(C)C)NC(=O)[C@@H](N)[C@@H](C)O)[C@@H](C)CC)C(=O)N[C@@H](CCCCN)C(=O)N[C@@H](CC(N)=O)C(=O)N[C@@H](CCCCN)C(=O)N[C@@H](CCCN=C(N)N)C(=O)N[C@@H](CCCCN)C(=O)N[C@@H](CCC(N)=O)C(=O)N[C@@H](CCCN=C(N)N)C(=O)N1CCC[C@H]1C(=O)N[C@@H](CCCN=C(N)N)C(=O)N[C@H](C(=O)N[C@@H](CO)C(=O)N[C@@H](CCCN=C(N)N)C(=O)N[C@@H](CCCN=C(N)N)C(=O)N[C@@H](CCCN=C(N)N)C(=O)N[C@@H](CCCN=C(N)N)C(=O)N[C@@H](CCCN=C(N)N)C(=O)N[C@@H](CCCN=C(N)N)C(=O)NCC(=O)NCC(=O)N[C@@H](CCCN=C(N)N)C(=O)N[C@@H](CCCN=C(N)N)C(=O)N[C@@H](CCCN=C(N)N)C(=O)N[C@@H](CCCN=C(N)N)C(=O)O)C(C)C` [TLISWIKNKRKQRPRVSRRRRRRGGRRRR], for which the MIC in [17] was no less than 132 µM; in [18] it was no less than 66 µM; in test [19], 16.5 µM (≈ 62.5 µg/mL); against Staphylococcus aureus 31 it was no less than 33 µM; against Staphylococcus aureus 38, no less than 33 µM; in test [20], no less than 66 µM. Further, the MIC in test [21] is no less than 33 µM.
Regarding `CC(C)C[C@H](NC(=O)CNC(=O)[C@H](CS)NC(=O)CNC(=O)[C@H](CC(N)=O)NC(=O)CNC(=O)[C@H](Cc1c[nH]c2ccccc12)NC(=O)CNC(=O)[C@H](CCCN=C(N)N)NC(=O)[C@H](CC(=O)O)NC(=O)[C@@H](N)C(C)C)C(=O)N[C@@H](Cc1ccccc1)C(=O)NCC(=O)N[C@@H](CCCCN)C(=O)NCC(=O)NCC(=O)O` [VDRGWGNGCGLFGKGG], the MIC in test [22] is no less than 100 µM; against Candida albicans SC5314, no less than 100 µM; in test [23] it was no less than 100 µM; against Bacillus subtilis it was no less than 100 µM; in test [24] it was greater than 100 µM; in test [25], no less than 100 µM. This compound also showed an MIC in [26] of no less than 100 µM.
Consider `CC(C)[C@H](N)C(=O)N[C@@H](CCCCN)C(=O)N[C@@H](CCCN=C(N)N)C(=O)N[C@@H](Cc1c[nH]c2ccccc12)C(=O)N[C@@H](CCCCN)C(=O)N[C@@H](CCCCN)C(=O)N[C@@H](Cc1c[nH]c2ccccc12)C(=O)N[C@@H](CCCN=C(N)N)C(=O)N[C@@H](Cc1c[nH]c2ccccc12)C(=O)N[C@@H](CCCCN)C(=O)N[C@@H](Cc1c[nH]c2ccccc12)C(=O)N[C@@H](CCCCN)C(=O)N[C@@H](CCCCN)C(=O)N[C@@H](Cc1c[nH]c2ccccc12)C(=O)N[C@H](C(N)=O)C(C)C` [VKRWKKWRWKWKKWV], for which the MIC in test [27] is 0.525 µM (≈ 1.17 µg/mL); in [28], 1.4 µM (≈ 3.13 µg/mL); in test [29], 2.1 µM (≈ 4.69 µg/mL); in [7], 4.21 µM (≈ 9.38 µg/mL); in the test with Bacillus subtilis it was 0.525 µM (≈ 1.17 µg/mL); in test [30] it was 1.25 µM (≈ 2.79 µg/mL). Further, the MIC in test [31] was determined as 0.265 µM (≈ 0.59 µg/mL); in test [32], 0.628 µM (≈ 1.4 µg/mL).

These data come from DBAASP.
